For seven cell lines, relative viability results are on record in the supplement of paper PMC10307832.

Common to all, as to assay: relative viability (nuclei count vs DMSO), 5 days (fraction); higher = more cells survive
Compound in the experiment “Alisertib + OSI-027”: COc1cc(Nc2ncc3c(n2)-c2ccc(Cl)cc2C(c2c(F)cccc2OC)=NC3)ccc1C(=O)O [Alisertib] + COc1cccc2cc(-c3nc([C@H]4CC[C@H](C(=O)O)CC4)n4ncnc(N)c34)[nH]c12 [OSI-027] (partner 0.5 µM)
The essentials:
(§1)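 Lung cancer cell lines were seeded in 1536-well plates and dosed by pin tool the next day, with either a single drug or a fixed anchor-drug dose combined with five library-drug doses (not always all listed) spaced in √10 steps. Five days later, one step fixed the cells and stained their nuclei (final 0.05% Triton X-100, 1% formaldehyde, 1 ug/ml Hoechst), and nuclei were counted on 4× images. Relative viability is the nuclei count in treated wells divided by the count in vehicle wells, and each value is the median of duplicate plates.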

Compound in the experiment “Alisertib + Crizotinib”: COc1cc(Nc2ncc3c(n2)-c2ccc(Cl)cc2C(c2c(F)cccc2OC)=NC3)ccc1C(=O)O [Alisertib] + C[C@@H](Oc1cc(-c2cnn(C3CCNCC3)c2)cnc1N)c1c(Cl)ccc(F)c1Cl [Crizotinib] (partner 1 µM)
The essentials: as §1

Compound in the experiment “Alisertib + Linsitinib”: COc1cc(Nc2ncc3c(n2)-c2ccc(Cl)cc2C(c2c(F)cccc2OC)=NC3)ccc1C(=O)O [Alisertib] + C[C@]1(O)C[C@@H](c2nc(-c3ccc4ccc(-c5ccccc5)nc4c3)c3c(N)nccn32)C1 [Linsitinib] (partner 1 µM)
The method, boiled down: as §1

Compound in the experiment “Alisertib + Tozasertib”: COc1cc(Nc2ncc3c(n2)-c2ccc(Cl)cc2C(c2c(F)cccc2OC)=NC3)ccc1C(=O)O [Alisertib] + Cc1cc(Nc2cc(N3CCN(C)CC3)nc(Sc3ccc(NC(=O)C4CC4)cc3)n2)n[nH]1 [Tozasertib] (partner 0.1 µM)
The method, boiled down:
as §1

LOU-NH91: the relative viability with Alisertib + OSI-027 (first compound 0.005 µM) came out at 0.682; in the experiment with Alisertib + OSI-027 (first compound 0.01581 µM) it was 0.719; with Alisertib + OSI-027 (first compound 0.05 µM) it was 0.674; in the experiment with Alisertib + OSI-027 (first compound 0.1581 µM), 0.389; with Alisertib + OSI-027 (first compound 0.5 µM), 0.324; in the experiment with Alisertib + Crizotinib (first compound 0.005 µM), 0.76. Further, the relative viability with Alisertib + Crizotinib (first compound 0.01581 µM) was 0.705; with Alisertib + Crizotinib (first compound 0.05 µM), 0.494; with Alisertib + Crizotinib (first compound 0.1581 µM) it was 0.463; with Alisertib + Crizotinib (first compound 0.5 µM), 0.424; in the experiment with Alisertib + Linsitinib (first compound 0.005 µM), 0.977; with Alisertib + Linsitinib (first compound 0.01581 µM), 0.941. Further, the relative viability was determined as 0.818 in the experiment with Alisertib + Linsitinib (first compound 0.05 µM); 0.491 with Alisertib + Linsitinib (first compound 0.1581 µM); 0.403 with Alisertib + Linsitinib (first compound 0.5 µM); 0.656 with Alisertib + Tozasertib (first compound 0.005 µM); 0.652 with Alisertib + Tozasertib (first compound 0.01581 µM); 0.47 in the experiment with Alisertib + Tozasertib (first compound 0.05 µM). Besides, the relative viability with Alisertib + Tozasertib (first compound 0.1581 µM) amounted to 0.364; in the experiment with Alisertib + Tozasertib (first compound 0.5 µM), 0.337.
As for NCI-H2347, the relative viability came out at 0.373 with Alisertib + OSI-027 (first compound 0.005 µM); 0.346 with Alisertib + OSI-027 (first compound 0.01581 µM); 0.373 with Alisertib + OSI-027 (first compound 0.05 µM); 0.377 with Alisertib + OSI-027 (first compound 0.1581 µM); 0.282 in the experiment with Alisertib + OSI-027 (first compound 0.5 µM); 0.783 with Alisertib + Crizotinib (first compound 0.005 µM). Moreover, the relative viability in the experiment with Alisertib + Crizotinib (first compound 0.01581 µM) came out at 0.526; with Alisertib + Crizotinib (first compound 0.05 µM) it was 0.61; with Alisertib + Crizotinib (first compound 0.1581 µM) it was 0.454; with Alisertib + Crizotinib (first compound 0.5 µM), 0.468; in the experiment with Alisertib + Linsitinib (first compound 0.005 µM) it was 0.967; in the experiment with Alisertib + Linsitinib (first compound 0.01581 µM) it was 0.954. Further, the relative viability in the experiment with Alisertib + Linsitinib (first compound 0.05 µM) came to 0.812; in the experiment with Alisertib + Linsitinib (first compound 0.1581 µM) it was 0.729; with Alisertib + Linsitinib (first compound 0.5 µM) it was 0.478; with Alisertib + Tozasertib (first compound 0.005 µM), 0.517; with Alisertib + Tozasertib (first compound 0.01581 µM) it was 0.549; in the experiment with Alisertib + Tozasertib (first compound 0.05 µM) it was 0.415. The relative viability amounted to 0.401 with Alisertib + Tozasertib (first compound 0.1581 µM) and 0.273 with Alisertib + Tozasertib (first compound 0.5 µM).
For the cell line NCI-H2126, the relative viability came out at 0.721 in the experiment with Alisertib + OSI-027 (first compound 0.005 µM); 0.696 with Alisertib + OSI-027 (first compound 0.01581 µM); 0.588 with Alisertib + OSI-027 (first compound 0.05 µM); 0.318 with Alisertib + OSI-027 (first compound 0.1581 µM); 0.36 in the experiment with Alisertib + OSI-027 (first compound 0.5 µM); 0.96 in the experiment with Alisertib + Crizotinib (first compound 0.005 µM). In addition, the relative viability was found to be 0.945 with Alisertib + Crizotinib (first compound 0.01581 µM); 0.486 in the experiment with Alisertib + Crizotinib (first compound 0.05 µM); 0.365 with Alisertib + Crizotinib (first compound 0.1581 µM); 0.311 with Alisertib + Crizotinib (first compound 0.5 µM); 0.709 with Alisertib + Linsitinib (first compound 0.005 µM); 0.752 with Alisertib + Linsitinib (first compound 0.01581 µM). Besides, the relative viability stood at 0.467 in the experiment with Alisertib + Linsitinib (first compound 0.05 µM); 0.342 with Alisertib + Linsitinib (first compound 0.1581 µM); 0.256 with Alisertib + Linsitinib (first compound 0.5 µM); 0.798 in the experiment with Alisertib + Tozasertib (first compound 0.005 µM); 0.637 with Alisertib + Tozasertib (first compound 0.01581 µM); 0.405 with Alisertib + Tozasertib (first compound 0.05 µM). Besides, the relative viability in the experiment with Alisertib + Tozasertib (first compound 0.1581 µM) worked out at 0.293; in the experiment with Alisertib + Tozasertib (first compound 0.5 µM), 0.288.
Consider HCC-827, for which the relative viability in the experiment with Alisertib + OSI-027 (first compound 0.005 µM) came out at 0.722; in the experiment with Alisertib + OSI-027 (first compound 0.01581 µM), 0.755; with Alisertib + OSI-027 (first compound 0.05 µM) it was 0.685; with Alisertib + OSI-027 (first compound 0.1581 µM) it was 0.257; with Alisertib + OSI-027 (first compound 0.5 µM) it was 0.18; with Alisertib + Crizotinib (first compound 0.005 µM), 0.898. In addition, the relative viability was determined as 0.802 in the experiment with Alisertib + Crizotinib (first compound 0.01581 µM); 0.374 with Alisertib + Crizotinib (first compound 0.05 µM); 0.395 with Alisertib + Crizotinib (first compound 0.1581 µM); 0.254 with Alisertib + Crizotinib (first compound 0.5 µM); 0.908 with Alisertib + Linsitinib (first compound 0.005 µM); 0.928 with Alisertib + Linsitinib (first compound 0.01581 µM). In addition, the relative viability with Alisertib + Linsitinib (first compound 0.05 µM) was determined as 0.543; with Alisertib + Linsitinib (first compound 0.1581 µM) it was 0.434; with Alisertib + Linsitinib (first compound 0.5 µM), 0.316; with Alisertib + Tozasertib (first compound 0.005 µM), 0.378; with Alisertib + Tozasertib (first compound 0.01581 µM), 0.31; with Alisertib + Tozasertib (first compound 0.05 µM), 0.258. For the same cell line, the relative viability with Alisertib + Tozasertib (first compound 0.1581 µM) came out at 0.273; with Alisertib + Tozasertib (first compound 0.5 µM) it was 0.278.
Regarding NCI-H3122, the relative viability in the experiment with Alisertib + OSI-027 (first compound 0.005 µM) turned out to be 0.86; with Alisertib + OSI-027 (first compound 0.01581 µM), 0.754; with Alisertib + OSI-027 (first compound 0.05 µM), 0.599; with Alisertib + OSI-027 (first compound 0.1581 µM), 0.336; with Alisertib + OSI-027 (first compound 0.5 µM), 0.149; with Alisertib + Crizotinib (first compound 0.005 µM), 0.244. Also, the relative viability with Alisertib + Crizotinib (first compound 0.01581 µM) was found to be 0.306; with Alisertib + Crizotinib (first compound 0.05 µM) it was 0.217; with Alisertib + Crizotinib (first compound 0.1581 µM) it was 0.218; with Alisertib + Crizotinib (first compound 0.5 µM), 0.191; with Alisertib + Linsitinib (first compound 0.005 µM), 1.02; with Alisertib + Linsitinib (first compound 0.01581 µM) it was 0.905. For the same cell line, the relative viability with Alisertib + Linsitinib (first compound 0.05 µM) is 0.571; with Alisertib + Linsitinib (first compound 0.1581 µM) it was 0.467; with Alisertib + Linsitinib (first compound 0.5 µM) it was 0.245; with Alisertib + Tozasertib (first compound 0.005 µM) it was 0.384; in the experiment with Alisertib + Tozasertib (first compound 0.01581 µM), 0.315; with Alisertib + Tozasertib (first compound 0.05 µM) it was 0.235. For the same cell line, the relative viability stood at 0.27 with Alisertib + Tozasertib (first compound 0.1581 µM) and 0.191 with Alisertib + Tozasertib (first compound 0.5 µM).
On to HOP-62, for which the relative viability was 0.683 with Alisertib + OSI-027 (first compound 0.005 µM); 0.727 with Alisertib + OSI-027 (first compound 0.01581 µM); 0.537 with Alisertib + OSI-027 (first compound 0.05 µM); 0.243 in the experiment with Alisertib + OSI-027 (first compound 0.1581 µM); 0.176 with Alisertib + OSI-027 (first compound 0.5 µM); 0.833 with Alisertib + Crizotinib (first compound 0.005 µM). The relative viability with Alisertib + Crizotinib (first compound 0.01581 µM) came out at 0.743; in the experiment with Alisertib + Crizotinib (first compound 0.05 µM), 0.232; with Alisertib + Crizotinib (first compound 0.1581 µM), 0.212; with Alisertib + Crizotinib (first compound 0.5 µM), 0.104; with Alisertib + Linsitinib (first compound 0.005 µM) it was 0.551; with Alisertib + Linsitinib (first compound 0.01581 µM), 0.853. Moreover, the relative viability with Alisertib + Linsitinib (first compound 0.05 µM) was determined as 0.305; with Alisertib + Linsitinib (first compound 0.1581 µM) it was 0.203; with Alisertib + Linsitinib (first compound 0.5 µM), 0.155; with Alisertib + Tozasertib (first compound 0.005 µM) it was 0.339; in the experiment with Alisertib + Tozasertib (first compound 0.01581 µM) it was 0.275; with Alisertib + Tozasertib (first compound 0.05 µM), 0.204. Moreover, the relative viability turned out to be 0.24 with Alisertib + Tozasertib (first compound 0.1581 µM) and 0.203 in the experiment with Alisertib + Tozasertib (first compound 0.5 µM).
HCC-44: the relative viability with Alisertib + OSI-027 (first compound 0.005 µM) is 0.465; in the experiment with Alisertib + OSI-027 (first compound 0.01581 µM), 0.313; with Alisertib + OSI-027 (first compound 0.05 µM), 0.368; with Alisertib + OSI-027 (first compound 0.1581 µM), 0.166; in the experiment with Alisertib + OSI-027 (first compound 0.5 µM), 0.186; in the experiment with Alisertib + Crizotinib (first compound 0.005 µM) it was 0.872. Moreover, the relative viability was 0.769 with Alisertib + Crizotinib (first compound 0.01581 µM); 0.388 with Alisertib + Crizotinib (first compound 0.05 µM); 0.219 with Alisertib + Crizotinib (first compound 0.1581 µM); 0.176 with Alisertib + Crizotinib (first compound 0.5 µM); 0.73 with Alisertib + Linsitinib (first compound 0.005 µM); 0.683 with Alisertib + Linsitinib (first compound 0.01581 µM). Besides, the relative viability was determined as 0.42 in the experiment with Alisertib + Linsitinib (first compound 0.05 µM); 0.328 in the experiment with Alisertib + Linsitinib (first compound 0.1581 µM); 0.113 with Alisertib + Linsitinib (first compound 0.5 µM); 0.929 in the experiment with Alisertib + Tozasertib (first compound 0.005 µM); 0.59 with Alisertib + Tozasertib (first compound 0.01581 µM); 0.296 in the experiment with Alisertib + Tozasertib (first compound 0.05 µM). Further, the relative viability with Alisertib + Tozasertib (first compound 0.1581 µM) worked out at 0.349; in the experiment with Alisertib + Tozasertib (first compound 0.5 µM), 0.196.
